Source: patent publication US20210095293A1, “METHODS OF TREATING CANCERS WITH GPR132 INHIBITORS” (The Board of Regents of the University of Texas System, priority 2016, published 2021)

Tests used:
Assay type in all cases: cell-based, mouse
4T1.2 cells = assay: adherence assay of breast cancer cells to fibronectin; conditions: macrophages activated by 4T1.2 CM or lactate (5 mM); vs untreated control macrophages
Description: FIGS. 11A-11C. Lactate-activated macrophage promotes cancer cell adhesion, migration and invasion via Gpr132. (FIG. 11A) Adherence assays. 4T1.2 cells were suspended in fibronectin ([…]) pre-coated plates with CM from spleen-derived macrophages (mf) that were treated with 4T1.2 CM or lactate (5 mM) with or without Gpr132 antibody (6 mg/ml) or normal IgG (6 mg/ml) for 10 min. The adhered cells were stained with crystal violet, dissolved in 1% Triton X-100 and measured by OD590. (FIGS. 11B-11C) Boyden chamber assay of cancer cell migration and invasion. 4T1.2 cells (B) or EO771 cells (FIG. 11C) were plated on the upper chamber inserts, with untreated (Control), 4T1.2 CM-activated or lactate-activated spleen-derived WT or Gpr132-KO macrophages plated in the lower chambers. For invasion assay, the inserts were pre-coated with 60 μl matrigel. After migration for 6 hrs (FIG. 11B) or invasion for 24 hrs (FIG. 11C), the migrated or invaded cells were stained with crystal violet and counted as cells per field of view under microscope (n=3-4); For (FIG. 11C), the first bar of each data set of the bar graphs represents the control mf, and the second bar represents Gpr132KO; *p<0.05; **p<0.01; ***p<0.005; ****p<0.001. […]
Cancer cells were treated with the conditioned medium from indicated macrophage for 2 hrs. Adherence of treated breast cancer cells to fibronectin was evaluated as described.

Gpr132 = assay: calcium mobilization assay in BMDMs; conditions: WT or Gpr132-KO BMDMs stimulated with 25 mM
Description: FIG. 27. […] WT or Gpr132-KO BMDMs were stimulated with 25 mM lactate (Left) or HCl (Right) (n=3).
To determine whether Gpr132 is required for lactate signaling in macrophages, a calcium mobilization assay was performed. […] First, lactate levels in the CM of distinct cancer cell lines were measured using a Vitros 250 chemistry analyzer. […] Second, the effects of blocking lactate production from EO771 and 4T1.2 cells by oxamic acid, an inhibitor of lactate dehydrogenase was tested.

[1] = tested on: bone marrow derived macrophages (BMDMs); assay: macrophage M2-like morphology (elongation); conditions: WT BMDMs, exogenous lactate added
Text: FIGS. 9A-9D. Tumor-derived factors activate M2-like macrophages via Gpr132. (FIG. 9A) The pH values of conditioned media (CM) from cancer cells or macrophages (n=5-8); *p<0.05, ****p<0.001 compared with RAW 264.7 macrophage CM. (FIG. 9B) Western blot for CD206 and Gpr132 in RAW 264.7 macrophages after treatment with indicated cancer cell CM for 24 hrs. Actin was used as a loading control. The CD206/actin or Gpr132/actin ratio was quantified and shown as fold changes compared to control (n=3); *p<0.05, ***p<0.005 compared with control. (FIG. 9C) Flow cytometry analysis of Gpr132 and CD206 in BMDMs with or without EO771 CM treatment. The experiments were repeated twice and the representative results are shown. (FIG. 9D) Immunofluorescence staining for CD11b in WT and Gpr132-KO BMDMs after differentiation in the absence or presence of 30% EO771 CM or 4T1.2 CM for 7 days. Elongated macrophage morphology indicates a M2-like phenotype. Nuclei were stained with DAPI. Scale bar, 25 μm. WT, wild-type; Gpr132-KO, Gpr132 knockout.
FIGS. 10A-10F. […] LC-MS was used to quantify lactate in the eluent of Gpr132 co-IP. (Left) Representative LC-MS chromatograms; (Right) Quantification of relative lactate binding (n=3). ****p<0.001 compared with WT. […] CD206/actin ratio was quantified and shown as fold changes compared to control (n=3-4); *p<0.05 compared with WT control. […]

SMILES: CC(O)C(=O)O (stereo not drawn) [lactate]
- adherence of 4T1.2 cells to fibronectin with CM from activated macrophages (4T1.2 cells): significantly increased
- effect of Gpr132 deletion on triggered calcium mobilization (Gpr132): compromised
- rescue of M2-like morphology by addition to CM of oxamic acid-treated cells [1]: restored
